Consider three compounds from article PMC10177380 (Cancers, 2023).

The test system of one data set is U87 glioblastoma. As to the kind of experiment: MTT growth inhibition, 72 h, U87. In kind it is cell-based.
The next data set relates to MCF7 breast. As to the kind of experiment: MTT growth inhibition, 72 h, MCF7. The data set is classed as cell-based. The following applies: for GI50: MCF7, MTT, 72 h.
The subject of a further data set is A2780 ovarian. The experiment in a line: MTT growth inhibition, 72 h, A2780. In kind it is cell-based.
For another data set, the system named is H460 lung. The experiment in a line: MTT growth inhibition, 72 h, H460. The following applies: for GI50: H460, MTT, 72 h. The data set is classed as cell-based.
The test system of a further data set is Du145 prostate. The experiment in a line: MTT growth inhibition, 72 h, Du145. The data set is classed as cell-based. The following applies: for GI50: Du145, MTT, 72 h.
Another data set has as its system BE2C neuroblastoma. As to the kind of experiment: MTT growth inhibition, 72 h, BE2C. In kind it is cell-based. The following applies: for GI50: BE2C, MTT, 72 h.
In a further data set the test system is SJG2 glioblastoma. The experiment in a line: MTT growth inhibition, 72 h, SJG2. In kind it is cell-based.
The test system of another data set is MIA pancreas. As to the kind of experiment: MTT growth inhibition, 72 h, MIA. The data set is classed as cell-based.
The test system of data set [1] is non-tumour derived MCF10A breast line. As to the kind of experiment: MTT growth inhibition, 72 h, MCF10A. In kind it is cell-based.
Data set [2] deals with ADDP ovarian variant (cisplatin-resistant A2780 clone). As to the kind of experiment: MTT growth inhibition, 72 h, ADDP. The following applies: for GI50: ADDP, MTT, 72 h. The data set is classed as cell-based.
A short description of data set [3]: Reduction with ascorbic acid (AsA) in PBS followed by 1H-NMR and 1D-195Pt-NMR. The data set is classed as physicochemical. The following applies: estimated 100% reduction, PBS in D2O, 37 °C. The procedure: The reduction behaviour of 1–6 was probed via ^1H-NMR and 1D-^195Pt-NMR spectroscopy, as previously described (see Supplementary Materials).
The reduction behaviour of 1–6 was monitored by ^1H-NMR and 1D-^195Pt-NMR spectroscopy using previously established methods. Prior to the reduction measurements, each metal complex was dissolved with PBS in D2O only.
Based on the initial 1D-^195Pt-NMR spectra acquired (Figures S62 and S63), the structural integrity of the complexes was retained, and no signs of reduction were observed, thus also confirming that the PBS had no effect on the complexes. Subsequently, AsA was added in each solution containing the metal complex, PBS and D2O. Then, sequential ^1H-NMR experiments were undertaken for 1 h, followed by final 1D-^195Pt-NMR experiments measured within the regions of 400 and −2800 ppm (Figures S64–S75). The approximate time points for 1–6 at which an estimated 50 and 100% reduction had occurred, in the presence of AsA, as represented by T50% and T100%, are summarised in Table 8.
A sequence of 1H-NMR experiments was carried out for 1 h at 37 °C, followed by 1D-195Pt-NMR within the regions of –2800 and 400 ppm. An amount of 10 mM PBS (~7.4 pH) was transferred to a vial and reduced to dryness through rotary evaporation. AsA (~1 mg) was combined with the metal complex (~5 mg) and transferred to the vial containing the dried PBS. 600 μL of D2O was then added to the vial to dissolve the complex, AsA and the PBS together. Each reaction was followed at 37 °C until the complete reduction […]
The cell lines tested were: HT29 colon, U87 glioblastoma, MCF-7 breast, A2780 ovarian, H460 lung, A431 skin, Du145 prostate, BE2-C neuroblastoma, SJ-G2 glioblastoma, MIA pancreas, ADDP ovarian variant, and the non-tumour derived MCF10A breast line. In […]
agents were prepared in DMSO (30 mM stock solutions) and stored at −20 °C until use.
All cell lines were cultured in a humidified atmosphere 5% carbon dioxide at 37 °C. The cancer cell lines were maintained in Dulbecco’s modified Eagle’s medium (DMEM) (Trace Biosciences, Sydney, NSW, Australia) supplemented with 10% foetal bovine serum, 10 mM sodium bicarbonate penicillin (100 IU mL−1), streptomycin (100 μg mL−1) and glutamine (4 mM). The non-cancer MCF10A cell line was cultured in DMEM:F12 (1:1) cell culture media, 5% heat inactivated horse serum, supplemented with penicillin (50 IU mL−1), streptomycin (50 μg mL−1), 20 mM 4-(2-hydroxyethyl)-1-piperazineethanesulfonic acid (HEPES), L-glutamine (2 mM), epidermal growth factor (20 ng mL−1), hydrocortisone (500 ng mL−1), cholera toxin (100 ng mL−1) and insulin (10 μg mL−1). Cytotoxicity was determined by plating cells in duplicate in […] medium at a density of 2500 – 4000 cells per well in 96 well plates. On day 0 (24 h after plating) when the cells were in logarithmic growth, 100 μL of medium with or without the test agent

The next data set relates to HT29 colon cells. As to the kind of experiment: ROS production, DCFDA/H2DCFDA cellular ROS assay. The data set is classed as cell-based, human. The following applies: treatment at GI50 concentration (TBHP positive control 20 μM). The method, then: To determine the presence of ROS in treated cells, a DCFDA/H2DCFDA-cellular ROS Assay Kit (Abcam, Cambridge, MA, USA) was utilised, as previously reported. The ROS potential of platinum(II) precursors and platinum(IV) scaffolds, which were determined using the same method, were also presented in this study for comparison.
Additionally, the ROS potential of the platinum(II) precursors and platinum(IV) scaffolds was determined previously and was presented here to allow for comparison (Table 10 and Figure 13). […] Treatment with the complexes and ligands was completed at each specific GI50 concentration. […]
dimethylthiazol-2-yl]-2,5-diphenyltetrazolium bromide) assay and absorbance was read at 540 nm. An eight-point dose response curve was produced from which the GI50 value was calculated, representing the drug concentration at which cell growth was inhibited by 50% based on the difference between the optical density values on day 0 and those at the end of drug exposure.
4. Reactive Oxygen Species (ROS) Potential
A total of 25,000 cells/mL of HT29 cells in DMEM were seeded in 96-well plates. Cells were washed with 1X kit buffer, and then stained with 25 μM 2’,7’-dichlorofluorescein diacetate (DCFH-DA) and incubated for 45 min. DCFH-DA was then removed, and cells were then re-washed with 1X kit buffer, after which phenol red free media was added.
Cells were then treated with a GI50 drug concentration for each complex. The plates were directly scanned to measure fluorescence (relative fluorescence units (RFU)) at different time points using the Glo-Max®-Multimode microplate reader (Promega Corporation, Alexandra, VIC, Australia) at an excitation/emission of 485/535 nm. […]

SMILES strings stand for the structures. Several values for one entry are separate records, joined by “and”; a condition that tells them apart may be missing. Equal values may be shown once. Read-outs that look alike come from different tables or passages of the source.

For `COc1ccc2c(c1)c(CC(=O)OCC(=O)[O][Pt-2]13([OH])([NH2+][C@H]4CCCC[C@@H]4[NH2+]1)[n+]1cccc4ccc5ccc[n+]3c5c41)c(C)n2C(=O)c1ccc(Cl)cc1` [Complex 4, [Pt^IV(phen)(SS-DACH)(ACE)(OH)]^2+], the GI50 – broadly, the concentration at which growth is held to half of that of the control – came out at 1720 ± 140 nM in the data set with U87 glioblastoma; 840 ± 390 nM in the data set on MCF7 breast; 350 ± 47 nM in the data set on A2780 ovarian; 610 ± 80 nM in the data set with H460 lung; 150 ± 40 nM in the data set with Du145 prostate; 1300 ± 150 nM with BE2C neuroblastoma. The concentration for 50% growth inhibition (GI50) was 1450 ± 104 nM in the data set on SJG2 glioblastoma, 490 ± 36 nM in the data set with MIA pancreas, 360 ± 29 nM in [1] and 330 ± 27 nM in data set [2]. Further, the “fold decrease of GI50 relative to the platinum(IV) scaffold” value with MCF7 breast amounted to 19 fold. The “Reduction Times T100%” value in [3] is 10 to 15 min. The “ROS Production” value in the data set with HT29 colon cells (HT29, 24 h) was 303 ± 8 RFU; with HT29 colon cells (HT29, 48 h), 298 ± 17 RFU; in the data set with HT29 colon cells (HT29, 72 h), 168 RFU and 168 ± 15 RFU.
Take `COc1ccc2c(c1)c(CC(=O)OCC(=O)[O][Pt-2]13([OH])([NH2+][C@H]4CCCC[C@@H]4[NH2+]1)[n+]1cccc4cc(C)c5ccc[n+]3c5c41)c(C)n2C(=O)c1ccc(Cl)cc1` [Complex 5, [Pt^IV(5-Mephen)(SS-DACH)(ACE)(OH)]^2+]: the 50% growth inhibitory concentration (GI50) in the data set on U87 glioblastoma was 140 ± 8 nM; in the data set with MCF7 breast, 39 ± 18 nM; in the data set with A2780 ovarian, 30 ± 12 nM; in the data set with H460 lung it was 43 ± 8 nM; with Du145 prostate, 1.3 ± 0.4 nM; in the data set with BE2C neuroblastoma it was 250 ± 33 nM. For the same compound, the GI50 was determined as 200 ± 21 nM with SJG2 glioblastoma, 29 ± 14 nM with MIA pancreas, 20 ± 5 nM in data set [1] and 9.3 ± 2 nM in data set [2]. In the data set on Du145 prostate, the “fold more potent than carboplatin” value is reported as 11,540 fold. The “fold more potent than cisplatin” value with Du145 prostate is reported as “at least 920 fold”; in [2] it was 3000 fold. Further, the “fold more potent than its platinum(II) precursor” value in the data set with Du145 prostate was found to be 17 fold. Besides, the “fold more potent than oxaliplatin” value with Du145 prostate was 2230 fold. Further, in the data set with BE2C neuroblastoma, the “fold decrease of GI50 relative to the platinum(IV) scaffold” value came out at 5.6 fold. Further, in [3], the “Reduction Times T100%” value was 10 to 15 min. The “ROS Production” value in the data set on HT29 colon cells (HT29, 24 h) was 313 ± 11 RFU; with HT29 colon cells (HT29, 48 h) it was 305 ± 10 RFU; with HT29 colon cells (HT29, 72 h), 192 RFU and 192 ± 7 RFU.
`COc1ccc2c(c1)c(CC(=O)OCC(=O)[O][Pt-2]13([OH])([NH2+][C@H]4CCCC[C@@H]4[NH2+]1)[n+]1cccc4c(C)c(C)c5ccc[n+]3c5c41)c(C)n2C(=O)c1ccc(Cl)cc1` [Complex 6, [Pt^IV(5,6-Me2phen)(SS-DACH)(ACE)(OH)]^2+]: the GI50 in the data set on U87 glioblastoma was determined as 28 ± 3 nM; in the data set with MCF7 breast, 12 ± 6 nM; with A2780 ovarian, 10 ± 4 nM; with H460 lung, 16 ± 2 nM; in the data set on Du145 prostate it was 0.22 ± 0.1 nM; in the data set on BE2C neuroblastoma, 160 ± 19 nM. Besides, the GI50 was 130 ± 25 nM in the data set with SJG2 glioblastoma, 7.8 ± 4 nM in the data set with MIA pancreas, 3.4 ± 1 nM in [1] and 1.3 ± 0.5 nM in data set [2]. In the data set with H460 lung, the “fold more potent than the platinum(IV) scaffold” value is given as about 12 fold. Also, the “fold more potent than its platinum(II) precursor” value in the data set on Du145 prostate (Du145) is on record as about 21 fold. Moreover, in data set [3], the “Reduction Times T100%” value is reported as 5 min. Further, the “ROS Production” value with HT29 colon cells (HT29, 24 h) is 344 ± 17 RFU; in the data set with HT29 colon cells (HT29, 48 h), 312 ± 13 RFU; in the data set with HT29 colon cells (HT29, 72 h) it was 202 RFU and 202 ± 10 RFU.
